# Reference: US6908899B2, “Pro-inflammatory fibrinopeptide” (U.S. Dept. of Veterans Affairs, priority 2001, dated 2005)
# Where no end group is shown, it is not given here. [ ]: non-standard residue; d: D form. Pen = CC(C)(S)[C@H](N)C(=O)O
# Legend:
# [1] = test system: RA synovial cells; experiment: PDTC inhibition of IL-1 and GPRP induction of ICAM-1 (ELISA); assay type: cell-based, human; settings: for ICAM-1 O.D. 492: PDTC pre-incubation 1.5 hours, IL-1 or GPRP overnight, ± SD, triplicate
# From the text: (§1) NF-kappaB activation is already well known to affect a broad array of immediate-early gene products, such as TNF, interleukins, chemokines and colony stimulating factors; genes that are tightly regulated during inflammation and wound healing. […] PDTC is an anti-oxidant that prevents NF-kappaB activation and its translocation to the nucleus (Reference 26). […] [table]
# [2] = test system: OA synovial cells; experiment: as above; assay type: cell-based, human; settings: PDTC pre-incubation 1.5 hours, IL-1 or GPRP overnight, ± SD, triplicate
# From the text: as §1
# [3] = test system: Synovial cells; experiment: SAC competition assay by flow cytometry; assay type: binding, human; settings: for Mean (fluorescence of bound SAC[KBtn]): Avidin-FITC
# From the text: Thus, labeled peptide could facilitate the isolation, identification and characterization of its receptor, through standard immunological techniques such as immunohistochemistry, flow cytometry and immunoprecipitation.
# [4] = test system: RA synovial fibroblasts; experiment: Binding of biotinylated peptide by flow cytometry; design: species or system human; settings: RA #16, Avidin-FITC
# From the text: Table 9 illustrates an analysis of the binding of biotinylated amino acid sequence 17-28 of human fibrinogen Aα Chain (SAC[KBtn]) to RA synovial fibroblasts by Flow Cytometry. The biotinylated control peptide (KREE-SEQ ID NO:3) represents corresponding sequences derived from the B/beta chain of fibrinogen following removal of Fibrinopeptide B.
# [5] = test system: RA patients; settings: double blind clinical trial (Reference 29); cited from earlier work
# [6] = test system: fibrin polymerization; settings: cited from earlier work
# [7] = test system: synovial cells from patients with osteoarthritis (OA); experiment: ICAM-1 ELISA (O.D. 492); assay type: cell-based, human; settings: OA line; overnight; IL-1 0.5 ng/ml, GPRP or GPRP-amide 1 mg/ml, fibrinogen receptor peptide 0.1 mg/ml, FPA, FPB 10^−4 M
# [8] = test system: RA synovial fibroblasts; experiment: ICAM-1 cell-ELISA (O.D. 492); assay type: cell-based, human; settings: for ICAM-1 O.D. 492: overnight, IL-1 0.5 ng/ml, GPRP or GPRP-amide 1 mg/ml, fibrinogen receptor peptide 0.1 mg/ml, FPA, FPB 10^−4 M; for Effect on ICAM-1 induction: synovial cell incubation with coagulation-related peptides
# [9] = test system: foreskin fibroblasts; experiment: ICAM-1 cell-ELISA (O.D. 492); assay type: cell-based, human; settings: overnight; for ICAM-1 O.D. 492: Foreskin line, IL-1 0.5 ng/ml, GPRP or GPRP-amide 1 mg/ml, fibrinogen receptor peptide 0.1 mg/ml, FPA, FPB 10^−4 M
# [10] = test system: foreskin fibroblast cells; experiment: In vitro T cell adhesion assay; assay type: cell-based, human; settings: Foreskin line; IL-1 beta 1 ng/ml overnight; ± SD, triplicate wells
# [11] = test system: OA derived synovial cells; experiment: In vitro T cell adhesion assay; assay type: cell-based, human; settings: OA line 15; IL-1 beta 1 ng/ml overnight; ± SD, triplicate wells
# [12] = test system: RA derived synovial cells; experiment: In vitro T cell adhesion assay; assay type: cell-based, human; settings: IL-1 beta 1 ng/ml overnight, ± SD, triplicate wells
# [13] = test system: monocytes; settings: monocytes stimulated with PHA; for comparison; cited from earlier work
# [14] = test system: RA synovial fibroblasts; experiment: GRO-alpha ELISA on cell culture supernatants; assay type: cell-based, human; settings: RA line 7
# Procedure: I used commercial ELISA kits to assay cell culture supernatants of RA fibroblasts that were cultured for both 24 and 48 hours with or without peptide.
# [15] = unlabeled competitor 2.5 mg for 3 hours, then labeled SAC[KBtn] for 1 hour
# fibrin polymerization, sequence (P02679 27-453, one chain of several): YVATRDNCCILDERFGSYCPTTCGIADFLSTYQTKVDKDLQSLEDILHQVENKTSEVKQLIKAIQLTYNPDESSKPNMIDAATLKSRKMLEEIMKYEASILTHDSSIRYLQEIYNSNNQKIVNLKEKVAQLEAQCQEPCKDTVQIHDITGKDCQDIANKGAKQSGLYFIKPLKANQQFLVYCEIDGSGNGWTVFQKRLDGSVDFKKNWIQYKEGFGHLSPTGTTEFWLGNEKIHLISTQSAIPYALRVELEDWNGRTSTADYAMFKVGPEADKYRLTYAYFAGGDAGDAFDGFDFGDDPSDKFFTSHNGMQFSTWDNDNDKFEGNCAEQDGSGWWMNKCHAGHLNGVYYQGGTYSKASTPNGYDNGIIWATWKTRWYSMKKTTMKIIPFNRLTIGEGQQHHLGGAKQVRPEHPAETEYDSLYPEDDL
# fibrin polymerization, sequence (P02671 20-639 isoform P02671-2 partner limits assumed, one chain of several): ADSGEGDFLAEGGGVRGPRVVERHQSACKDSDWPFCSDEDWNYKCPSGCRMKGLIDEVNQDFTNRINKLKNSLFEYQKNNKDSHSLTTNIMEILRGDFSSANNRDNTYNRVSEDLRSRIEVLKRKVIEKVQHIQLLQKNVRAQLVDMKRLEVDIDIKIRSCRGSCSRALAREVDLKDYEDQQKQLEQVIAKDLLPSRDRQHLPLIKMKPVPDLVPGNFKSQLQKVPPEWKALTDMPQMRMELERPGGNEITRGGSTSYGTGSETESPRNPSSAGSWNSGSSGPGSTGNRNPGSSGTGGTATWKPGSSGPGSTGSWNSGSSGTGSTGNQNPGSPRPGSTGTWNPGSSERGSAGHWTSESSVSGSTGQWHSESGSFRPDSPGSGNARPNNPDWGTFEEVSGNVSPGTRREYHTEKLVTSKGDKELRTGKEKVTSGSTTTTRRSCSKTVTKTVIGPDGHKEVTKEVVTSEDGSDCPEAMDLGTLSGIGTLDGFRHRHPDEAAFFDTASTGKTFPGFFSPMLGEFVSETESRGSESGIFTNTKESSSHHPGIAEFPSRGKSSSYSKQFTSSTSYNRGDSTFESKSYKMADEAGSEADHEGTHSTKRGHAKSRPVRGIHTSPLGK
molecule,measurement,setting,value
"S=C(S)N1CCCC1 [PDTC, pyrrolidinedithio-carbamate]",ICAM-1 O.D. 492,[1]; RA line 5,0.75 ± .06
same,ICAM-1 O.D. 492,[1]; RA line 6,0.61 ± .02
same,Effect on increase in ICAM-1 expression induced by Interleukin-1 and by GPRP,[1]; inclusion of PDTC,stopped the entire increase in ICAM-1 expression
same,ICAM-1 O.D. 492,[2]; OA line 2,0.65 ± .03
same,ICAM-1 O.D. 492,[2]; OA line 8,0.55 ± .04
GPRVVERHQSAC[KBtn] (GPRVVERHQSACK) [SAC [KBtn]],Mean (fluorescence of bound SAC[KBtn]),[3]; labeled SAC[KBtn] without competitor,51.20
same,% Cells Positive,[4]; 100 ug biotinylated peptide,86.3%
same,Mean Fluorescent Channel,[4]; 100 ug biotinylated peptide,257.9
same,% Cells Positive,[4]; 200 ug biotinylated peptide,80.0%
same,Mean Fluorescent Channel,[4]; 200 ug biotinylated peptide,125.1
C[C@]12Cc3c[nH]nc3C[C@@H]1CC[C@@H]1[C@@H]2CC[C@@]2(C)[C@H]1CC[C@]2(C)O [stanozolol],Clinical outcome in RA patients,[5],clinical benefit
"GHRPLDKKREE[KBtn] (GHRPLDKKREEK) [KREE [KBtn], biotinylated control peptide derived from the B/beta chain of fibrinogen, reference compound]",% Cells Positive,[4]; 100 ug biotinylated peptide,10.6%
same,Mean Fluorescent Channel,[4]; 100 ug biotinylated peptide,20.37
GPRVVERHQSAC (Unknown. Obtained from a commercial source.),Competition with biotin-labeled SAC for binding to human synovial fibroblasts,[3]; unlabeled competitor,can compete
same,Mean (fluorescence of bound SAC[KBtn]),[3]; [15],36.30
GPRP-amide: GPRP with the carboxyl group at the end of Pro4 changed to an amide group (OH to NH2) (GPRP-NH2),Effectiveness at inhibiting polymerization relative to H-Gly-Pro-Arg-Pro-OH,[6]; Reference 20,approximately three and one-half
same,ICAM-1 O.D. 492,[7],0.44 ± .01
same,ICAM-1 O.D. 492,[8]; RA line 1,0.65 ± .02
same,ICAM-1 O.D. 492,[8]; RA line 2,0.49 ± .02
same,Induction of ICAM-1 in synovial fibroblasts,[8]; amide analog substituted for GPRP,totally ineffective
same,ICAM-1 O.D. 492,[9],0.80 ± .01
"FPB: Fibrinopeptide B, coagulation-related peptide (QGVNDNEEGFFSAR; ends and bridges not checked; UniProt P02675 31-44, looked up) [reference compound]",ICAM-1 O.D. 492,[7],0.41 ± .04
same,ICAM-1 O.D. 492,[8]; RA line 1,0.67 ± .04
same,ICAM-1 O.D. 492,[8]; RA line 2,0.47 ± .02
same,Effect on ICAM-1 induction,[8],no effect
same,ICAM-1 O.D. 492,[9],0.80 ± .02
"FPA: amino acids 1 through 16 of the fibrinogen A/alpha chains cleaved off by thrombin (ADSGEGDFLAEGGGVR; Fibrinopeptide A; UniProt P02671 20-35, looked up) [reference compound]",ICAM-1 O.D. 492,[7],0.31 ± .005
same,ICAM-1 O.D. 492,[8]; RA line 1,0.61 ± .05
same,ICAM-1 O.D. 492,[8]; RA line 2,0.43 ± .03
same,Effect on ICAM-1 induction,[8],no effect
same,ICAM-1 O.D. 492,[9],0.69 ± .02
Gly-Pro-Arg [reference compound],Inhibition of fibrin polymerization,[6]; literature (Reference 25),functions well as a polymerization inhibitor
"IL-1: cytokine, an inducer of ICAM-1, positive control [reference compound]",Adherent T cell numbers,[10],94 ± 16
same,ICAM-1 O.D. 492,[1]; RA line 5,1.88 ± .05
same,ICAM-1 O.D. 492,[1]; RA line 6,1.80 ± .04
same,ICAM-1 O.D. 492,[2]; OA line 2,1.60 ± .03
same,ICAM-1 O.D. 492,[2]; OA line 8,1.51 ± .05
same,ICAM-1 O.D. 492,[7],1.36 ± .03
same,Adherent T cell numbers,[11],66 ± 19
same,ICAM-1 O.D. 492,[8]; RA line 1,1.74 ± .08
same,ICAM-1 O.D. 492,[8]; RA line 2,1.18 ± .03
same,Adherent T cell numbers,[12]; RA line 7,116 ± 14
same,Adherent T cell numbers,[12]; RA line 8,58 ± 21
same,ICAM-1 O.D. 492,[9],1.77 ± .13
"Ac-[Pen]RGDC (cysteine pairing not given here) [Fib. Recept. Pept., reference compound]",ICAM-1 O.D. 492,[7],0.38 ± .02
same,ICAM-1 O.D. 492,[8]; RA line 1,0.56 ± .02
same,ICAM-1 O.D. 492,[8]; RA line 2,0.42 ± .01
same,ICAM-1 O.D. 492,[9],0.73 ± .08
phytohemagglutinin,Increase of IL-8 production,[13],approximately three
"interferon γ: positive control for foreskin fibroblasts (protein, UniProt P01579 24-161, looked up) Interferon gamma: QDPYVKEAENLKKYFNAGHSDVADNGTLFLGILKNWKEESDRKIMQSQIVSFYFKLFKNFKDDQSIQKSVETIKEDMNVKFFNSNKKKRDDFEKLTNYSVTDLNVQRKAIHELIQVMAELSPAAKTGKRKRSQMLFRG",ICAM-1 expression O.D. 492,"[9]; Foreskin fibroblasts, fibrin clots 0.6 mg/ml, GPRP 1 mg/ml or interferon γ 200 U/ml, mean ± SD",1.57 ± .13
Fibrinogen: plasma protein precursor of fibrin; unlabeled competitor in Table 10 (protein) chain 1: ADSGEGDFLAEGGGVRGPRVVERHQSACKDSDWPFCSDEDWNYKCPSGCRMKGLIDEVNQDFTNRINKLKNSLFEYQKNNKDSHSLTTNIMEILRGDFSSANNRDNTYNRVSEDLRSRIEVLKRKVIEKVQHIQLLQKNVRAQLVDMKRLEVDIDIKIRSCRGSCSRALAREVDLKDYEDQQKQLEQVIAKDLLPSRDRQHLPLIKMKPVPDLVPGNFKSQLQKVPPEWKALTDMPQMRMELERPGGNEITRGGSTSYGTGSETESPRNPSSAGSWNSGSSGPGSTGNRNPGSSGTGGTATWKPGSSGPGSTGSWNSGSSGTGSTGNQNPGSPRPGSTGTWNPGSSERGSAGHWTSESSVSGSTGQWHSESGSFRPDSPGSGNARPNNPDWGTFEEVSGNVSPGTRREYHTEKLVTSKGDKELRTGKEKVTSGSTTTTRRSCSKTVTKTVIGPDGHKEVTKEVVTSEDGSDCPEAMDLGTLSGIGTLDGFRHRHPDEAAFFDTASTGKTFPGFFSPMLGEFVSETESRGSESGIFTNTKESSSHHPGIAEFPSRGKSSSYSKQFTSSTSYNRGDSTFESKSYKMADEAGSEADHEGTHSTKRGHAKSRPV chain 2: QGVNDNEEGFFSARGHRPLDKKREEAPSLRPAPPPISGGGYRARPAKAAATQKKVERKAPDAGGCLHADPDLGVLCPTGCQLQEALLQQERPIRNSVDELNNNVEAVSQTSSSSFQYMYLLKDLWQKRQKQVKDNENVVNEYSSELEKHQLYIDETVNSNIPTNLRVLRSILENLRSKIQKLESDVSAQMEYCRTPCTVSCNIPVVSGKECEEIIRKGGETSEMYLIQPDSSVKPYRVYCDMNTENGGWTVIQNRQDGSVDFGRKWDPYKQGFGNVATNTDGKNYCGLPGEYWLGNDKISQLTRMGPTELLIEMEDWKGDKVKAHYGGFTVQNEANKYQISVNKYRGTAGNALMDGASQLMGENRTMTIHNGMFFSTYDRDNDGWLTSDPRKQCSKEDGGGWWYNRCHAANPNGRYYWGGQYTWDMAKHGTDDGVVWMNWKGSWYSMRKMSMKIRPFFPQQ chain 3: YVATRDNCCILDERFGSYCPTTCGIADFLSTYQTKVDKDLQSLEDILHQVENKTSEVKQLIKAIQLTYNPDESSKPNMIDAATLKSRKMLEEIMKYEASILTHDSSIRYLQEIYNSNNQKIVNLKEKVAQLEAQCQEPCKDTVQIHDITGKDCQDIANKGAKQSGLYFIKPLKANQQFLVYCEIDGSGNGWTVFQKRLDGSVDFKKNWIQYKEGFGHLSPTGTTEFWLGNEKIHLISTQSAIPYALRVELEDWNGRTSTADYAMFKVGPEADKYRLTYAYFAGGDAGDAFDGFDFGDDPSDKFFTSHNGMQFSTWDNDNDKFEGNCAEQDGSGWWMNKCHAGHLNGVYYQGGTYSKASTPNGYDNGIIWATWKTRWYSMKKTTMKIIPFNRLTIGEGQQHHLGGAKQAGDV,Mean (fluorescence of bound SAC[KBtn]),[3]; [15],21.63
same,GRO-alpha,[14],8000 pg/mL
same,GRO-alpha Fold Increase,[14]; versus control,145X
